In ChEMBL document CHEMBL3045361, “Novel GABA-AT inhibitors: QSAR and docking based virtual screening of phenyl substituted -phenyl ethylidene hydrazine analogues” (Med Chem Res, 2011):

target: 4-aminobutyrate aminotransferase, mitochondrial (Homo sapiens) (UniProt P80404); test: Inhibition of GABA-AT (unknown origin); design: concentration or dose not given beside the values; details: concentration not given here
Sequence (P80404 whole entry): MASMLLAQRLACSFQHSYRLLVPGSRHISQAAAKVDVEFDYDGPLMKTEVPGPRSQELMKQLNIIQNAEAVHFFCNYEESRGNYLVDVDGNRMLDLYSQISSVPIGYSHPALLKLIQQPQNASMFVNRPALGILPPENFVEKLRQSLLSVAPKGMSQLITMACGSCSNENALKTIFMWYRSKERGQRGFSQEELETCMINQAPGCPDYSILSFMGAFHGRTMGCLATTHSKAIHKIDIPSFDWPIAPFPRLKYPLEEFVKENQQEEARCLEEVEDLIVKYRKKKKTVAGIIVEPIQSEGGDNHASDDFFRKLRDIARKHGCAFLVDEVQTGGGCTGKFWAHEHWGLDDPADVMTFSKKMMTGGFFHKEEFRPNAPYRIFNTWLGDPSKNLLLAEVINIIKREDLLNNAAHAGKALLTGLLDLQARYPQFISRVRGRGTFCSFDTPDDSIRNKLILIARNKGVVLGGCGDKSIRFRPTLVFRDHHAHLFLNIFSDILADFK

Question: Which inhibition does the source give for N/N=C/Cc1cccc(F)c1 here?
Answer: Its inhibition is 72.5%.

Question: Cc1ccc(C/C=N/N)cc1 was tested. Which inhibition did it give?
Answer: Its inhibition is 70.4%.

Question: N/N=C/Cc1ccc(F)cc1 was tested. Which inhibition did it give?
Answer: The inhibition was 61.6%.

Question: With N/N=C/Cc1ccc(C(F)(F)F)cc1 as the compound, how does the inhibition read?
Answer: Its inhibition is 33.2%.

Question: N/N=C/Cc1ccccc1C(F)(F)F was tested. Which inhibition did it give?
Answer: Its inhibition is 46.3%.

Question: How did the inhibition turn out when N/N=C/Cc1cccc(C(F)(F)F)c1 was run?
Answer: Its inhibition is 76%.

Question: Which inhibition does the source give for COc1cccc(C/C=N/N)c1 here?
Answer: The inhibition was 77.6%.

Question: Which inhibition does the source give for Cc1ccccc1C/C=N/N here?
Answer: The inhibition was 51.3%.

Question: For COc1ccc(C/C=N/N)cc1, which inhibition is on record?
Answer: Its inhibition is 66.6%.

Question: With N/N=C/Cc1ccccc1Cl as the compound, how does the inhibition read?
Answer: The inhibition was 56.1%.

Question: For N/N=C/Cc1ccccc1, which inhibition is on record?
Answer: The inhibition was 75.4%.

Question: For N/N=C/Cc1ccccc1F, which inhibition is on record?
Answer: The inhibition was 62.9%.

Question: With COc1ccccc1C/C=N/N as the compound, how does the inhibition read?
Answer: The inhibition was 60.1%.

Question: Which inhibition does the source give for N/N=C/Cc1ccc(Cl)cc1Cl here?
Answer: Its inhibition is 59%.

Question: How did the inhibition turn out when N/N=C/Cc1ccc(Cl)cc1 was run?
Answer: The inhibition was 54.2%.

Question: How did the inhibition turn out when Cc1cccc(C/C=N/N)c1 was run?
Answer: The inhibition was 75.4%.

Question: With N/N=C/Cc1cccc(Cl)c1 as the compound, how does the inhibition read?
Answer: The inhibition was 74.9%.
